The record followed here is patent US10077261B2, “Imidazolin-5-one derivative useful as FASN inhibitors for the treatment of cancer” (Janssen Pharmaceutica NV, priority 2012, dated 2018).

This assay deals with T1, hFASN enzyme (full length) (Homo sapiens, UniProt P49327).
T1 construct: 10 μL hFASN enzyme (full length, 300 ng, purified in house); made in house
In words: Fatty Acid Synthase (FASN) inhibition scintillation proximity assay. It is filed as biochemical. To be noted: for inhibition at 10 µM: read-out: Human FASN % inhibition @ 10 μM, 10 μM test compound; for IC50: read-out: Human FASN pIC50 (converted). In short, it runs like this:
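Read-out relies on hydrophobic ³H-palmitate product, formed from ³H-acetyl-CoA and malonyl-CoA, binding streptavidin imaging beads, measured at 610±20 nm after at least 24 h. Full-length enzyme (300 ng) in phosphate buffer pH 7.5 with DTT; eight compound concentrations, 0.01–30 μM.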

T1 sequence (P49327 whole entry): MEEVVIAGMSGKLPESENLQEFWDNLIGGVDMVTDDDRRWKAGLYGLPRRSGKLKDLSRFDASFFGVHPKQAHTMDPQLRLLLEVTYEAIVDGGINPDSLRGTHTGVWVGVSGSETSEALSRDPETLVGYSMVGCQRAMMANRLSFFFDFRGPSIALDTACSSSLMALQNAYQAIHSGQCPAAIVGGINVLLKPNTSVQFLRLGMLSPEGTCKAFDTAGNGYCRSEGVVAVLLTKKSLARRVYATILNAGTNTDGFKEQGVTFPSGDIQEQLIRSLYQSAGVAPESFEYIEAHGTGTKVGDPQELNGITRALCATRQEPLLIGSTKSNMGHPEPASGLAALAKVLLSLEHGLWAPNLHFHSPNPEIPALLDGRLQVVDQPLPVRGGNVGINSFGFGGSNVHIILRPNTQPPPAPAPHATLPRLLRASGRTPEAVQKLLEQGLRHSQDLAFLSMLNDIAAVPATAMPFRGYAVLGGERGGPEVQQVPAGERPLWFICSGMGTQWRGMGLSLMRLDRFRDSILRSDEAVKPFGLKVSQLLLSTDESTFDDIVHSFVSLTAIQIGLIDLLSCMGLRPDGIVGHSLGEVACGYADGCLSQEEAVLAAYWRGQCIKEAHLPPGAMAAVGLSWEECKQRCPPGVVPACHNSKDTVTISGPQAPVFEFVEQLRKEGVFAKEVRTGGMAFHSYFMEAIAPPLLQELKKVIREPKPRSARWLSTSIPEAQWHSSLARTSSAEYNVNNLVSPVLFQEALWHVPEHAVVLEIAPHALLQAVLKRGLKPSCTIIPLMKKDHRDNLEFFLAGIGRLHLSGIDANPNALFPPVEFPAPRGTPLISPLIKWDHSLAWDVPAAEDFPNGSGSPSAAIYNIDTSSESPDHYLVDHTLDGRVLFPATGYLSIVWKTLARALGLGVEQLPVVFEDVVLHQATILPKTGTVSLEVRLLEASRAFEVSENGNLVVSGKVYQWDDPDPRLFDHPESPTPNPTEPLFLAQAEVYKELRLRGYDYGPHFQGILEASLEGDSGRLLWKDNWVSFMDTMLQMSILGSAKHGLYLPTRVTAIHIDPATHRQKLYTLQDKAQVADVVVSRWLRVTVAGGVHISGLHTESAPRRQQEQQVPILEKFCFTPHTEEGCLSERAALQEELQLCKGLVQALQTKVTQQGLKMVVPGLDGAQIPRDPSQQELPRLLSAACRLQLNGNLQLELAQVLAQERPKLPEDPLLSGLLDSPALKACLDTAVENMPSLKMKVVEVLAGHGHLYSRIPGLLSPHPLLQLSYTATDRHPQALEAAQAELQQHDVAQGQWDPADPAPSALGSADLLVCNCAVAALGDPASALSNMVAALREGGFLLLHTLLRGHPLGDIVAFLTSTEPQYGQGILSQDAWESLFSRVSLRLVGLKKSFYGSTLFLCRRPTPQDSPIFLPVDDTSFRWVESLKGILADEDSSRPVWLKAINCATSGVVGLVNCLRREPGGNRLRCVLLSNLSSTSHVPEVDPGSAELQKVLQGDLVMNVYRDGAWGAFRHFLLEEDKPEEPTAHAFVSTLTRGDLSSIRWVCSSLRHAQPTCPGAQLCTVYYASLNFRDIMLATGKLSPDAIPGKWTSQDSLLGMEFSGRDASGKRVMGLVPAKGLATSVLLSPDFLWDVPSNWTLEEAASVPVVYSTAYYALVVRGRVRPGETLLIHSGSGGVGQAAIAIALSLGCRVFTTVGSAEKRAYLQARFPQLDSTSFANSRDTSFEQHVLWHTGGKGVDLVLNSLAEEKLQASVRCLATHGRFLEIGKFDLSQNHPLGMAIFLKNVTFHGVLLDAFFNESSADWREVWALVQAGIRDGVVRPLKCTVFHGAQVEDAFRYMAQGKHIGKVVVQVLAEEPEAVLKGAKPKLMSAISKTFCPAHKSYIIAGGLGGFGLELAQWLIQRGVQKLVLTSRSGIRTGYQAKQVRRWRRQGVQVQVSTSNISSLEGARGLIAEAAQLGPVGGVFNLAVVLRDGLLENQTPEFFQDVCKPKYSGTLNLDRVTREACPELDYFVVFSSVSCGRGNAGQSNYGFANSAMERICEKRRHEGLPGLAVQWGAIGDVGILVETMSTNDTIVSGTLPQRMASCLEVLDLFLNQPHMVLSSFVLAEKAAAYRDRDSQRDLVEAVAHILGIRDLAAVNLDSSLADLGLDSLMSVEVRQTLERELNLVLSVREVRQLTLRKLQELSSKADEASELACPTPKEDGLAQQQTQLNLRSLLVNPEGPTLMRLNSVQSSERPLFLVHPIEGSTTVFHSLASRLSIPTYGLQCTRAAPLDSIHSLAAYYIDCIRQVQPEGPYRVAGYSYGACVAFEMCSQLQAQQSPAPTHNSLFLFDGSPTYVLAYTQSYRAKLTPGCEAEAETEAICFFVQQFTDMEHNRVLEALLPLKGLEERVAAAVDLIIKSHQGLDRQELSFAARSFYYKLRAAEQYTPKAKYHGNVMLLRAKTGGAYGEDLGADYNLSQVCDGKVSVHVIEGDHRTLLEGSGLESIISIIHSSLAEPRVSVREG

As to `O=C(N1CC[C@@H](CN2C(=O)C3(CCOCC3)N=C2c2ccc(-c3ccc4occc4c3)cc2)C1)C(F)(F)F` [compound 670, 2-[4-(1-Benzofuran-5-yl)phenyl]-3-{[(3R)-1-(trifluoroacetyl)pyrrolidin-3-yl]methyl}-8-oxa-1,3-diazaspiro[4.5]dec-1-en-4-one], the inhibition at 10 µM is 56% and the IC50 is ~7.59 µM.

`O=C(N1CCCC1)N1CC[C@@H](CN2C(=O)C3(CCOCC3)N=C2c2ccc(-c3ccc4occc4c3)cc2)C1` [compound 671, 2-[4-(1-Benzofuran-5-yl)phenyl]-3-{[(3S)-1-(pyrrolidin-1-ylcarbonyl)pyrrolidin-3-yl]methyl}-8-oxa-1,3-diazaspiro[4.5]dec-1-en-4-one]: the inhibition at 10 µM came to 76% and the IC50 is 1.66 µM.

Take `CC(O)C(=O)N1CC[C@@H](CN2C(=O)C3(CCOCC3)N=C2c2ccc(-c3ccc4c(cnn4C)c3)cc2)C1` (stereo partly drawn) [compound 673, 3-{[(3R)-1-(2-Hycdroxypropanoyl)pyrrolidin-3-yl]methyl}-2-[4-(1-methyl-1H-indazol-5-yl)phenyl]-8-oxa-1,3-diazaspiro[4.5]dec-1-en-4-one]: the inhibition at 10 µM amounted to 61% and the IC50 is 5.5 µM.

On to `Cn1ncc2cc(-c3ccc(C4=NC5(CCOCC5)C(=O)N4C[C@@H]4CCN(C(=O)N5CCCC5)C4)cc3)ccc21` [compound 675], for which the inhibition at 10 µM came to 66% and the IC50 was 2.82 µM.

In the case of `CC(O)C(=O)N1CC[C@@H](CN2C(=O)C3(CCOC3)N=C2c2ccc(-c3ccc(-c4cnn(C)c4)cc3)cc2)C1` (stereo partly drawn) [compound 677, 3-{[(3R)-1-(2-Hydroxypropanoyl)pyrrolidin-3-yl]methyl}-2-[4′-(1-methyl-1H-pyrazol-4-yl)biphenyl-4-yl]-7-oxa-1,3-diazaspiro[4.4]non-1-en-4-one], the inhibition at 10 µM amounted to 63% and the IC50 was ~7.08 µM.

For `Cn1cc(-c2ccc(-c3ccc(C4=NC5(CCOC5)C(=O)N4C[C@@H]4CCN(C(=O)N5CCCC5)C4)cc3)cc2)cn1` (stereo partly drawn) [compound 679, 2-[4′-(1-Methyl-1H-pyrazol-4-yl)biphenyl-4-yl]-3-{[(3S)-1-(pyrrolidin-1-ylcarbonyl)pyrrolidin-3-yl]methyl}-7-oxa-1,3-diazaspiro[4.4]non-1-en-4-one], the inhibition at 10 µM was 57% and the IC50 is ~6.17 µM.

Consider `O=C(N1CC[C@@H](CN2C(=O)C3(CCOC3)N=C2c2ccc(-c3ccc4cccnc4c3)cc2)C1)C(F)(F)F` (stereo partly drawn) [compound 684, 2-(4-Quinolin-7-ylphenyl)-3-{[(3R)-1-(trifluoroacetyl)pyrrolidin-3-yl]methyl}-7-oxa-1,3-diazaspiro[4.4]non-1-en-4-one], for which the inhibition at 10 µM was 61% and the IC50 was 4.27 µM.

`CC(O)C(=O)N1CC[C@@H](CN2C(=O)C3(CCOC3)N=C2c2ccc(-c3ccc4occc4c3)cc2)C1` (stereo partly drawn) [compound 687, 2-[4-(1-Benzofuran-5-yl)phenyl]-3-{[(3R)-1-(2-hydroxypropanoyl)pyrrolidin-3-yl]methyl}-7-oxa-1,3-diazaspiro[4.4]non-1-en-4-one]: the inhibition at 10 µM amounted to 73% and the IC50 is 2.88 µM.

Take `O=C(N1CCCC1)N1CC[C@@H](CN2C(=O)C3(CCOC3)N=C2c2ccc(-c3ccc4occc4c3)cc2)C1` (stereo partly drawn) [compound 689, 2-[4-(1-Benzofuran-5-yl)phenyl]-3-{[(3S)-1-(pyrrolidin-1-ylcarbonyl)pyrrolidin-3-yl]methyl}-7-oxa-1,3-diazaspiro[4.4]non-1-en-4-one]: the inhibition at 10 µM came to 61% and the IC50 was 4.07 µM.

Regarding `CC(O)C(=O)N1CC[C@@H](CN2C(=O)C3(CCOC3)N=C2c2ccc(-c3ccc4c(cnn4C)c3)cc2)C1` (stereo partly drawn) [compound 691, 3-{[(3R)-1-(2-Hydroxypropanoyl)pyrrolidin-3-yl]methyl}-2-[4-(1-methyl-1H-indazol-5-yl)phenyl]-7-oxa-1,3-diazaspiro[4.4]non-1-en-4-one], the inhibition at 10 µM came to 63% and the IC50 was ~7.41 µM.

In the case of `Cn1ncc2cc(-c3ccc(C4=NC5(CCOC5)C(=O)N4C[C@@H]4CCN(C(=O)N5CCCC5)C4)cc3)ccc21` (stereo partly drawn) [compound 693, 2-[4-(1-Methyl-1H-indazol-5-yl)phenyl]-3-{[(3S)-1-(pyrrolidin-1-ylcarbonyl)pyrrolidin-3-yl]methyl}-7-oxa-1,3-diazaspiro[4.4]non-1-en-4-one], the inhibition at 10 µM is 48% and the IC50 is 9.77 µM.

In the case of `Cn1cc(-c2ccc(-c3ccc(C4=NC5(CCOCC5)C(=O)N4CC4CN(C(=O)C5CC5)C4)cc3)cc2)cn1` [compound 694, 3-{[1-(Cyclopropylcarbonyl)azetidin-3-yl]methyl}-2-[4-(1-methyl-1H-pyrazol-4-yl)biphenyl-4-yl]-8-oxa-1,3-diazaspiro[4.5]dec-1-en-4-one], the inhibition at 10 µM was 69% and the IC50 is 2.45 µM.

As to `CC(O)C(=O)N1CC(CN2C(=O)C3(CCOCC3)N=C2c2ccc(-c3ccc(-c4cnn(C)c4)cc3)cc2)C1` (stereo not drawn) [compound 695, 3-{[1-(2-Hydroxypropanoyl)azetidin-3-yl]methyl}-2-[4′-(1-methyl-1H-pyrazol-4-yl)biphenyl-4-yl]-8-oxa-1,3-diazaspiro[4.5]dec-1-en-4-one], the inhibition at 10 µM turned out to be 43% and the IC50 is 5.89 µM.

Consider `Cn1cc(-c2ccc(-c3ccc(C4=NC5(CCOCC5)C(=O)N4CC4CN(C(=O)[C@H]5CCCO5)C4)cc3)cc2)cn1` [compound 696, 2-[4′-(1-Mehtyl-1H-pyrazol-4-yl)biphenyl-4-yl]-3-({1-[(2R)-tetrahydro-furan-2-ylcarbonyl]azetidin-3-yl}methyl)-8-oxa-1,3-diazaspiro[4.5]dec-1-en-4-one], for which the inhibition at 10 µM was determined as 72% and the IC50 was 1.7 µM.

For the molecule `Cn1cc(-c2ccc(-c3ccc(C4=NC5(CCOCC5)C(=O)N4CC4CN(C(=O)N5CCCC5)C4)cc3)cc2)cn1` [compound 697, 2-[4′-(1-Methyl-1H-pyrazol-4-yl)biphenyl-4-yl]-3-{[1-(pyrrolidin-1-ylcarbonyl)azetidin-3-yl]methyl}-8-oxa-1,3-diazaspiro[4.5]dec-1-en-4-one], the inhibition at 10 µM stood at 58% and the IC50 was 5.89 µM.

With `O=C(C1CC1)N1CC(CN2C(=O)C3(CCOCC3)N=C2c2ccc(-c3ccc4occc4c3)cc2)C1` [compound 702, 2-[4-(1-Benzofuran-5-yl)phenyl]-3-{[1-(cyclopropylcarbonyl)azetidin-3-yl]methyl}-8-oxa-1,3-diazaspiro[4.5]dec-1-en-4-one], the inhibition at 10 µM was 75% and the IC50 is ~2.63 µM.

On to `CC(O)C(=O)N1CC(CN2C(=O)C3(CCOCC3)N=C2c2ccc(-c3ccc4occc4c3)cc2)C1` (stereo not drawn) [compound 703, 2-[4-(1-Benzofuran-5-yl)phenyl]-3-{[1-(2-hydroxypropanoyl)azetidin-3-yl]methyl}-8-oxa-1,3-diazaspiro[4.5]dec-1-en-4-one], for which the inhibition at 10 µM amounted to 61% and the IC50 is 4.47 µM.

With `O=C(N1CCCC1)N1CC(CN2C(=O)C3(CCOCC3)N=C2c2ccc(-c3ccc4occc4c3)cc2)C1` [compound 705, 2-[4-(1-Benzofuran-5-yl)phenyl]-3-{[1-(pyrrolidin-1-ylcarbonyl)azetidin-3-yl]methyl}-8-oxa-1,3-diazaspiro[4.5]dec-1-en-4-one], the inhibition at 10 µM was 71% and the IC50 was 2.69 µM.
